What was measured:
topoisomerase IIα = test: Amount of expression of topoisomerase IIα in whole cell extract by western blotting; type: cell-based, human; settings: glucose starvation condition; 2.5, 5, and 10 µM; FIG. 17(b)
Source text: Topoisomerase II inhibiting anticancer drug stabilizes a complex (cleavable complex) consisting of the DNA and topoisomerase IIα occurring in a catalytic reaction process of topoisomerase IIα to cause DNA damage. Therefore, cell-killing effect of the topoisomerase II-inhibiting anticancer drug depends on the amount of intracellular expression of topoisomerase IIα essential for formation of the cleavable complex. Then, the amount of expression of topoisomerase IIα in the cultured cancer cell under the glucose starvation and hypoxia environment that are found in the solid cancer and the effect of the proteasome inhibiting agent to the amount of expression were examined.
The culture condition of cells is same as that described in Example 1 including the M phase synchronous culture method and culture under the glucose starvation condition. Culture under hypoxia condition, that is found in the solid cancer, similar to glucose starvation was carried out using the culture medium (that prepared by adding 5% FBS to RPMI1640 culture medium) under the ordinary condition in a Gaspack 100 anaerobic system (Becton Dickinson made). Culture under the glucose starvation condition and hypoxia condition was carried out for 14 hours .
With the purpose to prepare a whole cell extract solution, cells culture under the above described condition were washed with an ice-cooled PBS twice and then, cells were removed from the culture dish by using a cell scraper (Sumitomo Bakelite made) for collection. Cells collected were precipitated by centrifugation and then, dissolved in an SDS sample buffer to collect as the extract solution from all cells. For reference, the composition of the SDS sample buffer was 10% v/v, glycerol, 5% 2-mercaptoethanol, 2% SDS (sodium lauryl sulfate), and 62.5 mM tris-hydrochloric acid (pH 6.8).
The amount of topoisomerase IIα in the extract solution from all cells was measured by the western blotting method. The extract solution from all cells containing a total protein quantity of 30 µg was put on an SDS polyacrylamide gel (4-20 Multigel: Daiichi Pure Chemicals K.K. made) and subjected to electrophoresis in an electrophoresis buffer (25 mM tris, 192 mM glycine, and 0.1% SDS) in a 40 mA constant current for 1 hour. Subsequently, blotting was carried out in 4°C blotting buffer (25 mM tris, 192 mM glycine, and 20% methanol) in a 50 V constant voltage for 12 hours to transfer a protein separated in the SDS polyacrylamide gel to a nitrocellulose membrane. This nitrocellulose membrane was soaked in a blocking buffer (0.1% Tween 20, 4% skim milk-added PBS) for 1 hour to carry out blocking. The nitrocellulose membrane blocked was soaked in a solution, that was prepared by adding anti-topoisomerase IIα antibody (Cambridge Research Biochemicals Corp. made) of the final concentration 1 µg/ml as the primary antibody to the blocking buffer solution, for 1 hour. The nitrocellulose membrane was washed with the blocking buffer three times (5 minutes once), and then, soaked in the solution, in which a 1/1000 volume of an antimouse antibody (Amersham Pharmacia Biotech made) labeled with horse radish peroxidase as a secondary antibody had been added to the blocking buffer, for 1 hour. The nitrocellulose membrane was washed with the blocking buffer three times (5 minutes once), and then, washed with the PBS, to which 0.1% Tween 20 was added, three times (5 minutes once). The nitrocellulose membrane after completion of antibody reaction and washing was treated with the ECL reagent (Amersham Pharmacia Biotech made) after a handling manual and a topoisomerase IIα-specific signal was detected on an X-OMAT™AR film (Kodakmade). For reference, steps after blotting was carried out in a room temperature. […]
The cell culture condition for both M phase-synchronized culture method and culture under the glucose starvation condition was as described in Example 1. […]

topoisomerase I = test: Amount of expression of topoisomerase I in whole cell extract by western blotting; type: cell-based, human; settings: ordinary and glucose starvation condition; 2.5, 5, and 10 µM; FIG. 17(a)
Method: The cell culture condition for both M phase-synchronized culture method and culture under the glucose starvation condition was as described in Example 1. M phase-synchronized cells were cultured in the culture medium, to which lactacystin of the final concentration 10 µM was added, or the culture medium, to which this was not added, as the proteasome inhibiting agent under the ordinary condition and the glucose starvation condition, respectively, for 13 hours. […] In order to examine sensitivity of cells against the topoisomerase I inhibiting agent, camptothecin (Yakult made), the drug was added to the culture medium to continue further culturing for 4 hours. Sensitivity of cells was measured by applying the colony formation method described in Example 1. On the other hand, the amount of expression of topoisomerase I that is the target molecule of camptothecin was measured by preparing the whole cell extract solution as described in Example 2 followed by the western blotting method. For reference, in measuring the amount of expression of topoisomerase I, regarding the proteasome inhibiting agents, clasto-lactacystin β lactone (Boston Biochem made), which is an activated form of lactacystin, was used in the final concentration of 2.5, 5, and 10 µM. Meanwhile, as the antibody against human topoisomerase I, a mouse monoclonal antibody established by Tsuruo et al. was used.

[1] = tested on: human colon cancer cell HT29; test: Anticancer therapy in human cancer cell-transplanted nude mouse model (size of tumor lump); type: in vivo, nude mouse BALB/cAnNCrj-nu/nu; settings: Example 5; intraperitoneally three times every 4 days; etoposide 33 mg/kg, lactacystin 40 mg/kg; in combined use lactacystin 5 hours before etoposide; FIG. 11
Source text: A human colon cancer cell HT29 was transplanted subcutaneously to a nude mouse to examine a therapeutic effect of combined use of lactacystin, the proteasome inhibiting agent, with etoposide, the anticancer drug targeting topoisomerase II.
As an experimental animal, the nude mouse BALB/cAnNCrj-nu/nu of 8-week old female (Charles River Laboratories product) was used. In order to form a tumor lump in the nude mouse, 1×10^7 HT29 cells was subcutaneously transplanted. After 8 to 10 days of transplanting, the tumor lump of HT29 cells grew to […] and at this point, the therapy was started. […]
The therapy was conducted by dividing the HT29 tumor-transplanted mice into 4 groups to assign 4 animals to 1 group as follows by administering intraperitoneally three times every 4 days: (1) control group untreated with saline, (2) etoposide 33 mg/kg, (3) lactacystin 40 mg/kg, (4) lactacystin 40 mg/kg and etoposide 33 mg/kg. […] Since start of the therapy, a size of the tumor lump was measured to measure effect of the therapy by administration of drugs once every 4 days. […]
The effect of therapy by simultaneous administration of the proteasome inhibiting agent, lactacystin, and the topoisomerase II-targeting anticancer, doxorubicin was examined. […] After start of treatment, once every 4 to 5 days, the size of the tumor lump was measured to measure the effect of treatment by drug administration.

[2] = tested on: human colon adenocarcinoma cell HT-29; test: Sensitivity of cells to anticancer drug by colony formation method (M phase-synchronized cells, with or without proteasome inhibiting agent); type: cell-based; settings: etoposide 5, 10, and 15 µg/ml, 1 hour, FIG. 1
Method: In the glucose starvation environment found in the solid cancer, the effect of combined use of the proteasome inhibitor in a human colon adenocarcinoma cell HT-29 with the anticancer drug targeting topoisomerase II was tested.
Concerning culture media, for a culture condition in a normal state, RPMI 1640 medium (Nissui Pharmaceutical Co.-made) to which a 5% FBS (fetal bovine serum) was added and for the culture condition in the glucose starvation state symbolically found in the solid cancer, RPMI 1640 medium (Lifetech Oriental-made), lacking glucose, in which the 5% FBS was added were used, respectively. Culture was carried out using a CO2 incubator (Tabai Espec-made) under conditions of 5% CO2/95% air and humidity 100%.
In order to test sensitivity to the anticancer drug, the cell cycle synchronization culture methodwas employed. Nocodazol (Sigma made) was used to synchronize the cell cycle, cells in a logarithmic proliferation phase were treated with 40 ng/ml Nocodazol for 9 hours, and cells accumulated in cell division phase (Mpahse) were collected by gentle pipetting. M phase-synchronized cells collected through these steps were washed with PBS (phosphate buffered saline) followed by inoculation of 1×10^5 cells per well of 12 well-culture plate.
M phase-synchronized cells were cultured under the normal condition and the glucose starvation condition to conduct treatments with the proteasome inhibiting agent and the anticancer drug as follows. For cells under the glucose starvation condition, the culture medium, to which the proteasome inhibiting agent and the protease inhibiting agent not inhibiting proteasome were added as the control group, and the culture medium, to which no inhibiting agent has been added, was used. For cells under the normal condition, the culture medium, to which each inhibiting agent was not added, was used. After inoculation of cells, culture was carried out for 13 hours in each culture medium. […]
Sensitivity of cells to the anticancer drug was measured using the colony formation method. As described above, cells treated with the proteasome inhibiting agent and the anticancer drug were washed with PBS followed by soaking in trypsin (Lifetech Oriental made) solution and removed from a culture dish to suspend in an ordinary culture medium. These cells were inoculated again in 500 to 5000 cells for a 10 cm culture dish and cultured for 10 to 12 days to form a colony. The colony formed was fixed by 10% formaldehyde solution and stainedwith 0.01% crystal violet (Wako Pure Chemicals made) solution. Number of colony was counted and a Cell survival rate was calculated assuming that the number of colonies untreated with the anticancer drug is 1.
For reference, the proteasome inhibiting agent and the protease inhibiting agent not inhibiting proteasome used as described above were as follows. • (1) Proteasome inhibiting agent • . […] MG115 (carbobenzoxy-L-Leucyl-L-Leucyl-L-Norvalinal): final concentration 2.5 µM (Peptide Institute Inc. made) • . MG132 (carbobenzoxy-L-Leucyl-L-Leucyl-Leucinal) : final concentration 2.5 µM (Peptide Institute Inc. made) • . Lactacystin, final concentration 10 µM (Kindly supplied from The Kitasato Institute made) • (2) Protease inhibiting agent not inhibiting proteasome • . E64, final concentration 25 µM (Peptide Institute Inc. made) • . ZLLal (carbobenzoxy-L-Leucyl-L-Leucinal): final concentration 25 µM (Peptide Institute Inc. made)
The cell culture condition for both M phase-synchronized culture method and culture under the glucose starvation condition was as described in Example 1. M phase-synchronized cells were cultured in the culture medium, to which lactacystin of the final concentration 10 µM was added, or the culture medium, to which this was not added, as the proteasome inhibiting agent under the ordinary condition and the glucose starvation condition, respectively, for 13 hours. […]

In the case of `CC(C)[C@H](O)[C@@]12NC(=O)[C@H](C)[C@@H]1OC2=O` [activated type of lactacystin, clasto-lactacystin β lactone], the “amount of expression of topoisomerase IIα” value (topoisomerase IIα) is reported as “the lowering of expression is perfectly inhibited” and the “amount of expression of topoisomerase I” value (topoisomerase I) is reported as “does not change”.
For `COc1cc([C@@H]2c3cc4c(cc3[C@@H](O[C@@H]3O[C@@H]5CO[C@@H](C)O[C@H]5[C@H](O)[C@H]3O)[C@H]3COC(=O)[C@H]23)OCO4)cc(OC)c1O` [etoposide], the “suppression of tumor proliferation (size of the tumor lump)” value [1] was “less suppression of tumor proliferation”, the “Cell survival (colony formation) with etoposide” value ([2]; glucose starvation condition) was “cells showed resistance against etoposide to survive” and the “Cell survival (colony formation) with etoposide” value ([2]; ordinary culture condition) was “almost all HT29 cells died”.

Source: patent EP1153612A1, “ANTICANCER AGENT POTENTIATORS” (Tsuruo, Takashi, priority 1999, dated 2000)
